Values of other authors in patent publication US20170262578A1, “SYSTEM, METHOD AND SOFTWARE FOR ANALYSIS OF INTRACELLULAR SIGNALING PATHWAY ACTIVATION USING TRANSCRIPTOMIC DATA” (PATHWAY PHARMACEUTICALS LTD, priority 2015, published 2017).
Where two headings read alike, the source gives them in different places.

Columns and labels:
[1] = test system: Metastatic Carcinoma of the Kidney Which Has Progressed on VEGF Receptor Tyrosine Kinase Inhibitor; conditions: with Best Supportive Care
[2] = test system: Metastatic Renal Cell Cancer; conditions: for Serious adverse events: 108 from 359 Axitinib / 110 from 355 Sorafenib participants
[3] = test system: Unresectable and/or Metastatic Renal Cell Carcinoma
Renal Cell Carcinoma [4] = test system: Renal Cell Carcinoma
[5] = test system: Metastatic Renal Cell Carcinoma (RCC)
[6] = test system: Unresectable and/or Metastatic Renal Cell Carcinoma; remark: listed apart in the source
[7] = test system: Unresectable and/or Metastatic Renal Cell Cancer
[8] = test system: Advanced Renal Cell Carcinoma; conditions: for Median overall response duration: 11 / 19 / 20 participants; for Median progression free survival / Median time to treatment failure: 207 / 209 / 210 participants; for Median overall survival: 207 Interferon-α / 209 Temsirolimus / 210 combination participants; for Clinical benefit (complete, partial response or stable disease) / Complete or partial response: from 207 / 209 / 210 participants
[9] = test system: Locally Recurrent or Metastatic Clear-Cell Renal Cell Carcinoma; conditions: 74 from 225 participants
[10] = test system: Locally Advanced and/or Metastatic Renal Cell Carcinoma; conditions: 230 from 554 Pazopanib / 224 from 548 Sunitinib participants
[11] = test system: Locally Advanced and/or Metastatic Renal Cell Carcinoma; conditions: 68 from 186 Pazopanib / 73 from 177 Sunitinib participants
[12] = test system: Locally Advanced and/or Metastatic Renal Cell Carcinoma; conditions: 76 from 290 participants
[13] = test system: Metastatic or Unresectable Renal Cell Cancer (RCC)
[14] = test system: unresectable or metastatic renal cell carcinoma
Renal Cell Carcinoma [15] = conditions: 28 from 51 participants
[16] = test system: Cytokine-Refractory Metastatic Renal Cell Carcinoma
[17] = test system: Advanced (First-Line) Renal Cell Cancer; conditions: 45 of 119 participants
[18] = test system: Metastatic Renal Cell Cancer
[19] = test system: Cytokine-Refractory Metastatic Renal Cell Carcinoma; conditions: 46 from 106 participants
[20] = first intervention period, 5 / 8 participants
[21] = first intervention period, from 97 / 92 participants

CO[C@H]1C[C@@H]2CC[C@@H](C)[C@@](O)(O2)C(=O)C(=O)N2CCCC[C@H]2C(=O)O[C@H]([C@H](C)C[C@@H]2CC[C@@H](OCCO)[C@H](OC)C2)CC(=O)[C@H](C)/C=C(\C)[C@@H](O)[C@@H](OC)C(=O)[C@H](C)C[C@H](C)/C=C/C=C/C=C/1C [RAD001, Everolimus]
Serious adverse events ([1]; 135 from 274 participants): 49.27%
Median overall survival ([1]; 277 participants): 13.57 months
Median progression free survival ([1]; 277 participants): 4.9 months
Complete or partial response ([1]; from 277 participants): 1.8%

CNC(=O)c1ccccc1Sc1ccc2c(/C=C/c3ccccn3)n[nH]c2c1 [Axitinib]
Serious adverse events [2]: 30.08%

CNC(=O)c1cc(Oc2ccc(NC(=O)Nc3ccc(Cl)c(C(F)(F)F)c3)cc2)ccn1 [Sorafenib]
Median duration of response according to the Independent Radiological Review [3, 20]: 7.5 months
Median time to response according to the Independent Radiological Review [3, 20]: 1.8 months
Serious adverse events ([3]; first intervention period, 47 from 97 / 36 from 90 participants): 48.45%
partial response (Independent Central Review) [3, 21]: 5 participants
stable disease (Independent Central Review) [3, 21]: 72 participants
Median progression-free survival according to the Investigator Assessment ([3]; second intervention period): 4.5 months
Serious adverse events ([3]; second intervention period, 14 from 49 / 30 from 61 participants): 28.57%
stable disease (Investigator Assessment) ([3]; second intervention period, from 49 / 61 participants): 25 participants
Serious adverse events (Renal Cell Carcinoma [4]; 34 of 95 participants): 35.79%
Median duration of overall response (Renal Cell Carcinoma [4]; 94 participants): 419 days
Median progression free survival (Renal Cell Carcinoma [4]; 94 participants): 386 days
Median time to response (Renal Cell Carcinoma [4]; 94 participants): 84 days
partial response (Renal Cell Carcinoma [4]; among 94 participants): 25 participants
stable disease (Renal Cell Carcinoma [4]; among 94 participants): 64 participants
Number of participants who died (Renal Cell Carcinoma [4]; from start of treatment of the first subject until 45 months later, from 94 participants): 43 participants
Serious adverse events ([5]; 4 from 47 participants): 8.51%
Duration of overall response (tumor burden reduction) ([5]; 14 participants): 7.1 months
Median overall survival ([5]; 47 participants): 16 months
Median time to progression ([5]; 47 participants): 4.4 months
Reduction in tumor burden equal to or larger than 5% ([5]; at 8 weeks (2 cycles of treatment), % from 47 participants): 30%
Median overall response duration ([6]; 5 participants): 7.4 months
Median time to objective response ([6]; 5 participants): 1.4 months
Serious adverse events ([6]; 12 from 39 participants): 30.77%
Median overall survival ([6]; 39 participants): 7.8 months
Median progression free survival ([6]; 39 participants): 5.5 months
Median time to progression ([6]; 39 participants): 5.5 months
partial response ([6]; from 39 participants): 5 participants
progressive disease ([6]; from 39 participants): 6 participants
stable disease ([6]; from 39 participants): 27 participants
Serious adverse events ([7]; 154 from 451 participants): 34.15%
Median progression free survival ([7]; 384 participants): 167 days
Median overall survival ([7]; 451 participants): 542 days
partial response ([7]; from 335 participants): 2.1%
stable disease ([7]; from 335 participants): 77.9%
Serious adverse events [2]: 30.99%
Median progression free survival ([2]; 361 Axitinib / 362 Sorafenib participants): 4.7 months

Interferon-α
Median overall response duration [8]: 7.4 months
Median progression free survival [8]: 3.2 months
Median time to treatment failure [8]: 1.9 months
Median overall survival [8]: 7.3 months
Clinical benefit (complete, partial response or stable disease) [8]: 16.4%
Complete or partial response [8]: 5.3%
Serious adverse events ([8]; in vivo): 49.5%

Cc1ccc(Nc2nccc(N(C)c3ccc4c(C)n(C)nc4c3)n2)cc1S(N)(=O)=O [Pazopanib]
Serious adverse events [9]: 32.89%
Serious adverse events [10]: 41.52%
Serious adverse events [11]: 36.56%
Serious adverse events [12]: 26.21%

CNC(=O)c1cc(Oc2ccc(NC(=O)Nc3ccc(Cl)c(C(F)(F)F)c3)c(F)c2)ccn1 [Regorafenib]
Median overall response duration ([13]; 19 participants): 428 days
Median duration of stable disease ([13]; 25 participants): 119 days
Serious adverse events ([13]; 30 from 49 participants): 61.22%
Median progression free survival ([13]; 49 participants): 335 days
partial response ([13]; among 48 participants): 39.6%
stable disease ([13]; among 48 participants): 41.7%

CN1CC[C@H](c2c(O)cc(O)c3c(=O)cc(-c4ccccc4Cl)oc23)[C@H](O)C1 [Flavopiridol]
stable disease ([14]; 14 among 34 participants): 41%
CR+PR ([14]; 34 participants): 12%
Median overall survival ([14]; 34 participants): 9 months
probability of not failing treatment by 6 months ([14]; 34 participants): 21%
complete response ([14]; among 34 participants): 1 participants
partial response ([14]; among 34 participants): 3 participants
Toxicity of treatment ([14]; in vivo): moderate

CCN(CC)CCNC(=O)c1c(C)[nH]c(/C=C2\C(=O)Nc3ccc(F)cc32)c1C [Sunitinib]
Serious adverse events [10]: 40.88%
Serious adverse events (Renal Cell Carcinoma [15]): 54.90%
Serious adverse events [11]: 41.24%
Serious adverse events ([16]; AM dose group, out of 54 participants): 21 participants
Serious adverse events ([16]; PM dose group, from 53 participants): 20 participants
Serious adverse events [17]: 37.82%
Serious adverse events ([18]; Sunitinib 37.5 mg group, 54 from 143 participants): 37.76%
Serious adverse events ([18]; Sunitinib 50 mg group, 50 from 146 participants): 34.25%
Serious adverse events [19]: 43.40%

CO[C@H]1C[C@@H]2CC[C@@H](C)[C@@](O)(O2)C(=O)C(=O)N2CCCC[C@H]2C(=O)O[C@H]([C@H](C)C[C@@H]2CC[C@@H](OC(=O)C(C)(CO)CO)[C@H](OC)C2)CC(=O)[C@H](C)/C=C(\C)[C@@H](O)[C@@H](OC)C(=O)[C@H](C)C[C@H](C)/C=C/C=C/C=C/1C [Temsirolimus]
Median overall response duration [8]: 11.1 months
Serious adverse events ([8]; 99 from 200 / 82 from 208 / 122 from 208 participants): 39.42%
Median progression free survival [8]: 5.6 months
Median time to treatment failure [8]: 3.7 months
Median overall survival [8]: 10.9 months
Clinical benefit (complete, partial response or stable disease) [8]: 34%
Complete or partial response [8]: 9.1%
